Test results: patent US8093273B2, “Flavanoids and isoflavanoids for the prevention and treatment of cardiovascular diseases” (Resverlogix Corp., priority 2004, dated 2012)
Like-named read-outs stand apart in the source and are kept apart here.

Tests used:
hApoA-I transgenic mice = test: hApoA-I transgenic mice, oral gavage for 14 days; assay type: in vivo; conditions: for change in vivo at 10 mg/kg / change in vivo at 30 mg/kg: Mus musculus, po, 336 h, relative to pretreatment, read-out: ApoA-I (% change); for change in vivo at 10 mg/kg: 10 mg/kg BID 14 days; for change in vivo at 30 mg/kg: 30 mg/kg BID 14 days
Text: To test whether the efficacy of compounds of the invention observed in vitro extended to an in vivo model, transgenic mice carrying multiple copies of the human ApoA-I gene (C57BI/6-tgn(apoa1)1 rub, Jackson Laboratory, Bar Harbor, Me.) were exposed to representative compounds of the invention. The exogenous human ApoA-I gene in these mice enables them to express the human ApoA-I protein under the control of this promoter.
Seven to eight week old male mice, transgenic for human ApoA-I were housed five per cage (10″×20″×8″ with aspen chip bedding) with pelleted Rodent chow [Purina 5001] and water available at all times. After an acclimation period of 1 week, animals were individually identified by numbering on tail and weighed. Mice were pre bled via the retro-orbital plexus, and 150 μl of blood was collected in 1.5 ml Eppendorf tube containing 1 μl of heparin and chilled on ice. Plasma was collected after centrifuging the whole blood at 14000 rpm [TOMY high speed micro-refrigerated centrifuge NTX-150] for 10 minutes at 4° C. and frozen at −80° C. Plasma was analyzed for: human ApoA-I by a human ApoA-I enzyme-linked Immunoassay [Direct Sandwich ELISA Calbiochem Cat#178422, Calbiochem Cat#178452, lot #B9076, Calbiochem Cat #178470 conjugated to Horse Radish Peroxidase (Cedarlane Cat#80220)]; total cholesterol [Ponte scientific reagents: # C7509-STD, #L7580-18, # C7510]; and triglyceride [Pointe Scientific Reagents: # 7532-STD, # L7580-18, #7532]. All samples were measured in triplicates and expressed as mg/dl. Mice were grouped based on the above plasma parameters and having an average body weight of 25 gm.
Two days following pre-bleed, mice were dosed by oral gavage daily for 14 days using a 20 gauge, 11/2″ curved disposable feeding needle [Popper & Sons]; when BID, mice were gavaged morning and afternoon (8 am and 5 pm); when SID mice were gavaged in morning (8 am). Compounds were prepared each day in vehicle. Test article(s), a positive control fenofibrate, and vehicle were dosed at volume of 5 mL/kg of body weight as a suspension (0.1 mL/20 g mouse). Fenofibrate was obtained commercially [SIGMA #F 6020]. Mice weights were recorded on day 1, 4, 7, 10, 12, and 15. On day 15, mice were weighed and fasted for 4 hours, sacrificed by inhalation of CO2 and blood was obtained via cardiac puncture (0.7-1.0 ml). Plasma was collected and frozen at −80° C. Samples were assayed for ApoA-I, total cholesterol, triglyceride and HDL-C by HPLC [Polaris 200 with an auto sampler Prostar 410 from Varian on a Superose 6 10/30 column from Amersham]. Samples were sent for NMR analysis [LipoScience] to identify particle size and subclass for lipoproteins. During necropsy, liver, brown fat, and the whole of small and large intestines were collected, cleaned with cold PBS and frozen at −80° C. for further analysis of compound levels. Variation between studies, in ApoA-I changes, was observed. Therefore, a relative comparison between individual(s) in the study groups was used.
4′-hydroxyflavone (10 mg/kg of body weight), 4-(4-oxo-4H-chromen-2-yl)phenyl nicotinate (Example 71) (10 mg/kg of body weight) and fenofibrate (100 mg/kg of body weight) were BID administered to hApoA-I transgenic mice daily for fourteen days by oral gavage in 0.5% Methylcellulose (w/v)/1% Tween 80 (w/v). Plasma was assayed for ApoA-I (FIG. 3A), HDL cholesterol and total cholesterol (FIG. 3B) and percent weight gain (FIG. 3C).
4′-hydroxyflavone (3 mg/kg of body weight), 4′-hydroxyflavone (10 mg/kg of body weight), 4′-hydroxyflavone (30 mg/kg of body weight), 2-(4-Hydroxy-phenyl)-pyrano[2,3-b]pyridin-4-one (10 mg/kg of body weight), and fenofibrate (100 mg/kg of body weight) were BID administered to hApoA-I transgenic mice daily for fourteen days by oral gavage in 0.5% methylcellulose (w/v)/1% Tween 80 (w/v). In this experiment plasma was assayed for ApoA-I. […]

human ApoA-I promoter [1] = test: ApoA-I promoter induction in HepG2 liver cells (pAI.474-Luc luciferase reporter); assay type: cell-based; conditions: average values at 15 μM, 48 hours incubation
Description: This study determined whether compounds of the invention have an effect on ApoA-I promoter activity expression in HepG2 cells, a liver cell line. Cells were grown under conditions recommended by the ATCC and summarized by Wong.
The promoter region of the gene encoding human ApoA-I was isolated and ligated upstream the structure gene of firefly luciferase to construct a reporter plasmid (pAI.474-Luc). The reporter plasmid, along with pRSV-β-galactosidase (as a control for transfection efficiency), were co-transfected into HepG2 cells. The cells were then incubated in an MEM selection media containing 20% fetal calf serum supplemented with G418 (final concentration: 0.5 mg/mL, Gibco) to give established strains that stably express from the reporter gene. The strains were seeded to a 6-well culture plates and incubated for 48 hours at 37° C. under 5% carbon dioxide. Cells were starved for 24 hrs in MEM selection media containing 0.5% FBS. Then, a solution of the compounds of the invention in DMSO (or other appropriate solvent) was added to the wells at a final concentration of 0 to 100 μM in MEM selection media containing 0.5% FBS.
(§1) After further incubation for 48 hours, the cells were harvested and lysed using Reporter Lysis Buffer (PROMEGA E3971), and 50 μL of luciferase assay reagent (PROMEGA E4550 Luciferase Reporter 1000 assay system) were added to measure luciferase activity with a luminometer (Fluoroskan Ascent FL from Thermo electron Corporation). Luciferase activity was normalized to lysate protein concentrations, measured using Bradford Reagent (Biorad Protein Assay reagent Cat #500-0006).

human ApoA-I promoter [2] = test: ApoA-I promoter induction in Caco-2 intestinal cells (pAI.474-Luc luciferase reporter); assay type: cell-based; conditions: Caco-2 cells, 15 μM, 48 hours incubation, luciferase activity vs control samples
Description: To examine the effects of compounds of the invention to increase ApoA-I expression, Caco-2 cells, an intestinal cell line derived from human epithelial intestinal cells, were grown under conditions recommended by the ATCC and summarized in United States Patent Application Publication No. 20040033480 (“Wong”), incorporated herein by reference.
Briefly, the promoter region of the gene encoding human ApoA-I was isolated and ligated upstream of the firefly luciferase gene to construct the reporter plasmid pAI.474-Luc. This reporter plasmid and pRSV-β-galactosidase (as a control for transfection efficiency) were co-transfected to Caco-2 cells. The Caco-2 cells were then incubated in a MEM selection media containing 20% fetal calf serum supplemented with G418 (final concentration: 0.5 mg/mL, Gibco) to give established strains that stably express from the reporter gene. The strains were seeded in 6-well culture plates and incubated for 48 hours at 37° C. under 5% carbon dioxide. Cells were starved for 24 hrs in MEM selection media containing 0.5% FBS. Then, a solution of a compound of the invention in DMSO or other appropriate solvent was added to the wells at a final concentration of 0 to 100 μM in MEM selection media containing 0.5% FBS.
as §1, with “system) was” for “system) were”, “Reagent (BioRad” for “Reagent (Biorad”, “#500-0006). The luciferase activity of cells treated with various concentrations of test compounds was compared to that of solvent control sample (i.e., solvent without any compound of the present invention added) and untreated control sample.” for “#500-0006).”

Caco-2 permeability = assay type: in vitro ADME, human; conditions: human
Text: The Caco-2 cell drug transport model is widely used for screening compounds in drug discovery to assess intestinal transport and predict absorption rates.

[3] = in vitro Caco-2 intestinal transport model, read-out: % Transported Paap
[4] = Table 6 fourth group, Control 3 1.11
[5] = Table 6 third group, Control 3 (F-101) (6.32)

SMILES: O=c1cc(-c2ccc(O)cc2)oc2ncccc12 [2-(4-hydroxy-phenyl)-pyrano[2,3-b]pyridin-4-one]
- plasma ApoA-I, net % change over vehicle (hApoA-I transgenic mice; Experiment B, 10 mpk BID oral gavage, two weeks): 3.75%

SMILES: O=c1c(O)c(-c2ccc(O)c(O)c2)oc2cc(O)cc(O)c12 [3,5,7-trihydroxy-2-(3,4-dihydroxyphenyl)-4H-chromen-4-one, reference compound]
- ApoA-I Promoter Induction (human ApoA-I promoter [1]): increased

SMILES: O=c1cc(-c2ccc(O)cc2)oc2cccc(O)c12 [4′,5-dihydroxyflavone]
- ApoA-I Promoter Induction (human ApoA-I promoter [1]): increased

SMILES: O=C1CC(c2ccc(O)cc2)Oc2cc(O)cc(O)c21 (stereo not shown) [5,7-Dihydroxy-2-(4-hydroxyphenyl)-chroman-4-one]
- ApoA-I Promoter Induction (human ApoA-I promoter [2]): increased
- ApoA-I Promoter Induction (human ApoA-I promoter [1]): increased

SMILES: O=c1cc(-c2ccccc2)oc2cc(O)cc(O)c12 [5,7-Dihydroxy-2-phenyl-4H-chromen-4-one, 5,7-Dihydroxy-2-phenyl-chromen-4-one, reference compound]
- ApoA-I Promoter Induction (human ApoA-I promoter [2]): increased
- Papp (Caco-2 permeability; [3]): 0.122 ×10⁻⁶ cm/s

SMILES: O=c1cc(-c2ccc(O)cc2)oc2cc(O)cc(O)c12 [5,7-dihydroxy-2-(4-hydroxyphenyl)-4H-chomen-4-one, reference compound]
- Papp (Caco-2 permeability; [3]): 1.5 ×10⁻⁶ cm/s

SMILES: COc1ccc2c(=O)cc(-c3ccc(O)cc3)oc2c1 [7-methoxy-2-(4-hydroxyphenyl)-4H-chromen-4-one, reference compound]
- Papp (Caco-2 permeability; [3]): 6.92 ×10⁻⁶ cm/s

SMILES: O=c1cc(-c2cc(F)c(O)c(F)c2)oc2ccccc12 [Example 6, 2-(3,5-difluoro-4-hydroxyphenyl)chromen-4-one]
- Papp (Caco-2 permeability; Caco-2): 0.531 ×10⁻⁶ cm/s
- melting point: 275 to 276 °C

SMILES: Cc1cc(-c2cc(=O)c3ccccc3o2)cc(C)c1O [Example 7, 2-(4-hydroxy-3,5-dimethylphenyl)chromen-4-one]
- ApoA-I Promoter Induction (human ApoA-I promoter [2]): increased
- Papp (Caco-2 permeability; Caco-2): 0.695 ×10⁻⁶ cm/s
- melting point: 255 to 256 °C

SMILES: O=c1cc(-c2ccc(O)cc2)oc2cccnc12 [Example 35, 2-(4-hydroxy-phenyl)-pyrano[3,2-b]pyridin-4-one]
- ApoA-I Promoter Induction (human ApoA-I promoter [2]): increase
- Papp (Caco-2 permeability; Caco-2): 1.98 ×10⁻⁶ cm/s

SMILES: O=c1cc(-c2ccc(O)cc2)oc2cnccc12 [Example 36, 2-(4-Hydroxyphenyl)pyrano[2,3-c]pyridin-4-one]
- ApoA-I Promoter Induction (human ApoA-I promoter [2]): increased
- change in vivo at 10 mg/kg (hApoA-I transgenic mice; [4]): 17%
- melting point: 294 to 296 °C

SMILES: Cc1cc(-c2cc(=O)c3cccnc3o2)ccc1O [Example 38, 2-(4-hydroxy-3-methylphenyl)-4H-pyrano[2,3-b]pyridine-4-one]
- ApoA-I Promoter Induction (human ApoA-I promoter [2]): increased
- Papp (Caco-2 permeability; Caco-2): 0.596 ×10⁻⁶ cm/s
- melting point: 300 to 302 °C

SMILES: O=c1cc(-c2ccc(O)cn2)oc2ccccc12 [Example 46, 2-(5-hydroxy-pyridin-2-yl)-chromen-4-one]
- ApoA-I Promoter Induction (human ApoA-I promoter [2]): increased
- Papp (Caco-2 permeability; Caco-2): 1.23 ×10⁻⁶ cm/s
- change in vivo at 10 mg/kg (hApoA-I transgenic mice; [5]): 5.62%

SMILES: O=c1cc(-c2ccncc2)oc2ccccc12 [Example 47, 2-pyridin-4-yl-chromen-4-one]
- ApoA-I Promoter Induction (human ApoA-I promoter [2]): increased
- Papp (Caco-2 permeability; Caco-2): 6.48 ×10⁻⁶ cm/s
- change in vivo at 10 mg/kg (hApoA-I transgenic mice; [5]): 22.7%

SMILES: O=c1cc(-c2ccc(O)nc2)oc2ccccc12 [Example 48, 2-(6-Hydroxypyridin-3-yl)-chromen-4-one]
- ApoA-I Promoter Induction (human ApoA-I promoter [2]): no increase
- change in vivo at 10 mg/kg (hApoA-I transgenic mice; [4]): 4.94%
- melting point: 296 to 297 °C

SMILES: O=c1cc(-c2ccc(O)cc2)[nH]c2ccccc12 [Example 51, 2-(4-Hydroxy-phenyl)-1H-quinolin-4-one]
- ApoA-I Promoter Induction (human ApoA-I promoter [2]): no increase
- change in vivo at 10 mg/kg (hApoA-I transgenic mice; [5]): 32.8%

SMILES: CC(=O)Oc1ccc(-c2cc(=O)c3ccccc3o2)cc1 [Example 72, 4-(4-oxo-4H-chromen-2-yl)phenyl acetate]
- ApoA-I Promoter Induction (human ApoA-I promoter [2]): increased
- Papp (Caco-2 permeability; Caco-2): 2.65 ×10⁻⁶ cm/s

SMILES: O=C(Oc1ccc(C2CC(=O)c3c(OC(=O)c4cccnc4)cc(OC(=O)c4cccnc4)cc3O2)cc1)c1cccnc1 (stereo not shown) [Example 73, 2-(4-(Nicotinoyloxy)phenyl)-4-oxochroman-5,7-diyl dinicotinate]
- ApoA-I Promoter Induction (human ApoA-I promoter [1]): no increase

SMILES: CC(C)OC(=O)C(C)(C)Oc1ccc(C(=O)c2ccc(Cl)cc2)cc1 [fenofibrate, reference compound]
- liver weight gain normalized to body weight, compared to vehicle (hApoA-I transgenic mice; Experiment A, 100 mg/kg BID, day 15, male mice): significant increase
- change in vivo at 30 mg/kg (hApoA-I transgenic mice; [4]): 68.9%
- change in vivo at 30 mg/kg (hApoA-I transgenic mice; Table 6 second group, Control 1 3.42): 127%
- change in vivo at 30 mg/kg (hApoA-I transgenic mice; Table 6 third group, Control 3 (6.32)): 74.4%
